Consider four compounds from patent US11446384B2, “Agent for targeting heart comprising tannic acid” (Korea Research Institute of Chemical Technology, priority 2018, dated 2022).

Data set [1] deals with myocardial ischemia reperfusion (MIR). Kind of data set: Infarct size (TTC staining) in MIR animal model after intravenous bFGF. It counts as in vivo, rats (SD rats). The conditions noted are these: MIR rats, 28 days after injection. As to the method: Particularly, rats (SD rats, 8 weeks old, male, 230-270 g) were anesthetized with a mixture of isoflurane (3 cc min^-1), Rompun, xylazine (1 mg kg^-1) and oxygen in an induction chamber. Then, the rats were intubated and a mixture of isoflurane and oxygen was allowed to flow at a rate of 1 cc min^-1. The rat heart was exposed through left thoracotomy, followed by occulusion for 10 minutes. The suture line was quickly loosened to resume blood flow through the left anterior descending artery (LAD). […] Upon completion of the hemodynamic evaluation, the heart was separated and immersed in warm PBS ( 37° C.) to eliminate blood residues. Then, the heart was quickly frozen at -20° C., and the frozen heart was sliced lengthwise approximately 2 mm away the apex. The slice was placed on a cell culture dish, which was treated with 1% TTC (triphenyltetrazolium chloride) dissolved in PBS at 37° C. for 15 minutes. After staining, the heart slice was photographed with a scanner. Then, live tissues stained with red and necrotic tissues non-stained and thus presented as white were distinguished. The size of the infarct area was measured digitally using ImageJ software, and the results are presented as %.

Data set [2] has the same test system. Kind of data set: In vivo hemodynamic evaluation of left ventricular function in MIR animal model. Further details: species or system rats (SD rats). The conditions noted are these: MIR rats; for EDP / EDV / ESP / ESV / Ea / HR / SW / Tau: 5 μg i.v., 28 days. As to the method:
Particularly, rats (SD rats, 8 weeks old, male, 230-270 g) were anesthetized with a mixture of isoflurane (3 cc min^-1), Rompun, xylazine (1 mg kg^-1) and oxygen in an induction chamber. Then, the rats were intubated and a mixture of isoflurane and oxygen was allowed to flow at a rate of 1 cc min^-1. The rat heart was exposed through left thoracotomy, followed by occulusion for 10 minutes. The suture line was quickly loosened to resume blood flow through the left anterior descending artery (LAD). […] 28 days after the injection, in vivo hemodynamic evaluation was performed to investigate the left ventricular function using […]500 (Transonic, USA) outputting data to LabScribe data collection software (iWorx/CB Sciences, USA).

The nature of data set [3]: Size of tannylated SP (particle size analyzer). It counts as physicochemical. As to conditions: [SP]/[TA] ratio of 20 or 10. The procedure: The mixed solutions with the [SP]/[TA] ratios of 20, 10, 5, 1 and 0.5 prepared to produce tannylated SP in Example 2 were observed by naked eye. Then, the size of tannylated SP ([SP]/[TA] ratio=20 and 10, volume=1 mL) was analyzed using a particle size analyzer (Zetasizer nano-ZS, Malvern instrument, UK).

Data set [4] addresses T1, elastin (Homo sapiens, UniProt P15502).
T1 sequence (P15502 27-786): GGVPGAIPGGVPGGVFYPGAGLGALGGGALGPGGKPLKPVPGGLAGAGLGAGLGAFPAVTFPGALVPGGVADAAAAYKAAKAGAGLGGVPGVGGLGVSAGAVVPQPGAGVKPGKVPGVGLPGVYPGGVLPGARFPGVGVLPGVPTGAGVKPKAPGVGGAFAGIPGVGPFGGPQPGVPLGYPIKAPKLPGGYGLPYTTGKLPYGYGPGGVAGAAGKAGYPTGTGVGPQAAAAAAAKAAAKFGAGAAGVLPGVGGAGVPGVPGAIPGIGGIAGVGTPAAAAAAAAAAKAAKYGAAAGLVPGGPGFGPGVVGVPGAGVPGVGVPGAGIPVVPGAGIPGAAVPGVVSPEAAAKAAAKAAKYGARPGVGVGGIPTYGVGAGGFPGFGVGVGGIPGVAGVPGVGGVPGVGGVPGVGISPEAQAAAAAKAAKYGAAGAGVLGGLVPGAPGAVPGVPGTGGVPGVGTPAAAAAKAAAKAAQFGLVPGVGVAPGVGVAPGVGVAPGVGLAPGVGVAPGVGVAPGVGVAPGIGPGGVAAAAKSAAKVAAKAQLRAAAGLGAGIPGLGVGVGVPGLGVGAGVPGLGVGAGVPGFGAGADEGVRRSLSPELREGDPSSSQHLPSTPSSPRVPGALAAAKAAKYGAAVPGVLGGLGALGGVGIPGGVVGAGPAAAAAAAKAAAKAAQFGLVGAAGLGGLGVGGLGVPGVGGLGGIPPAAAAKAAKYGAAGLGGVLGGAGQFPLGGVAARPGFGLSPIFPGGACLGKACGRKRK
Kind of data set: Turbidimetry binding analysis of TA and elastin. The conditions noted are these: elastin 0.24 mg/mL, TA 17 mg/mL, 1:1. As to the method: (§1) For turbidity analysis, each solution of elastin, type I collagen, HS and HA was prepared by diluting them in PBS at the concentration of 0.24 mg/mL. TA (17 mg/mL) was added to each solution at the volume ratio of 1:1, followed by mixing vigorously. Turbidity was measured at 600 nm using UV/vis spectrometer (HP8453, Hewlett-Packard, USA).

Data set [5] has as its target T2, type I collagen (Homo sapiens, UniProt P02452+P08123). Kind of data set: Turbidimetry binding analysis of TA and type I collagen. The conditions noted are these: type I collagen 0.24 mg/mL, TA 17 mg/mL, 1:1. The procedure: as §1
Data set [6] can be described thus: Turbidimetry binding analysis of TA and heparin sulfate. The conditions noted are these: HS 0.24 mg/mL, TA 17 mg/mL, 1:1. The procedure:
as §1

Data set [7] in a line: Turbidimetry binding analysis of TA and hyaluronic acid. As to conditions: HA 0.24 mg/mL, TA 17 mg/mL, 1:1. The procedure: as §1
The target of data set [8] is T2, type I collagen. Kind of data set: SPR binding analysis of TA and type I collagen. The conditions noted are these: surface adsorbed with collagen, TA 2 mg/mL. As to the method:
(§2) For SPR analysis, each solution of elastin, type I collagen (10 μg/mL) and TA (2 mg/mL) was prepared by diluting them in PBS (pH 7.3). All the solutions were filtered with 0.2 μm microfilter (Millipore, USA). Each protein (elastin or type I collagen) was adhered on Biacore gold (Au) sensor chip for 600 seconds. The chip was washed for 10 minutes to eliminate such samples attached weakly thereon. SPR analysis was performed at the flow rate of 10 μl/min using PBS as a flow buffer.

Data set [9] addresses T1, elastin. Kind of data set: SPR binding analysis of TA and elastin. As to conditions: surface adsorbed with elastin, TA 2 mg/mL. As to the method:
as §2

Data set [10] concerns the target T1, elastin. Kind of data set: ITC binding analysis of TA and elastin. As to the method: Elastin (210 μg/mL) and TA (2.5 mg/mL) solutions were used for ITC analysis. Elastin was placed in a sample cell. The TA solution was placed in a syringe, which was injected to the elastin in the sample cell (250 μl) (50 sequential injections, 5 μl per injection) for titration (with stirring at 350 rpm). Time interval was set at 180 seconds for subsequent injection, and raw data was processed using Microcal Origin (Microcal Software, Northampton, USA).

Setting [11] is: 5 μg i.v., non-treated control 51%.

T2 sequence (P02452 162-1218 limits assumed): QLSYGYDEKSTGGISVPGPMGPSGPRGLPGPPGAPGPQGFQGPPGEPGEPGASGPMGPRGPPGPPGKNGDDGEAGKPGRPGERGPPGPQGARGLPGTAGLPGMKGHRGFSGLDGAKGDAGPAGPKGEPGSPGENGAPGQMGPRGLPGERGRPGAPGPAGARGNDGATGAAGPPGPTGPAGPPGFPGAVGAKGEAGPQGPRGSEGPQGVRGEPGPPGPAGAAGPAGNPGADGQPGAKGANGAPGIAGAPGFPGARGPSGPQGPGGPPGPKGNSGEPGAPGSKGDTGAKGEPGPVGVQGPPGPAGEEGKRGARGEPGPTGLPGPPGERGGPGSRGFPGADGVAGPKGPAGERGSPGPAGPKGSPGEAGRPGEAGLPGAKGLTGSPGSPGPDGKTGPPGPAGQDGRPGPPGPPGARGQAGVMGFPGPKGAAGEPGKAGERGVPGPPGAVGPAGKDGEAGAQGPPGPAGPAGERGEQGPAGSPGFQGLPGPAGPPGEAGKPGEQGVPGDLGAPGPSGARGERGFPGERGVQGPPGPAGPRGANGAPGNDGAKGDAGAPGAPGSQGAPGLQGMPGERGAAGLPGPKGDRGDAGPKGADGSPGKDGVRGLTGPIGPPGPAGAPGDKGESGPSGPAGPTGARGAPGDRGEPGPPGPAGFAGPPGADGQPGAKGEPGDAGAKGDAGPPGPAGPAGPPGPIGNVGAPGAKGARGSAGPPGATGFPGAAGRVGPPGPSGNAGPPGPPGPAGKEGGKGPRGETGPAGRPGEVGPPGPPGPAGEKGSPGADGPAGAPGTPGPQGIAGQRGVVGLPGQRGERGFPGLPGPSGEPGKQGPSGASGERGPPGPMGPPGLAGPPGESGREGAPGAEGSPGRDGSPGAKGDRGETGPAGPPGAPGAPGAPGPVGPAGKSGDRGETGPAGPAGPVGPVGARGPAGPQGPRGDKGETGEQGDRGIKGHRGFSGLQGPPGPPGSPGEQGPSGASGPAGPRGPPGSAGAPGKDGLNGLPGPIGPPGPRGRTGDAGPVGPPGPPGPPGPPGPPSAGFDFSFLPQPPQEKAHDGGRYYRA
T2 sequence (P08123 80-1119 limits assumed): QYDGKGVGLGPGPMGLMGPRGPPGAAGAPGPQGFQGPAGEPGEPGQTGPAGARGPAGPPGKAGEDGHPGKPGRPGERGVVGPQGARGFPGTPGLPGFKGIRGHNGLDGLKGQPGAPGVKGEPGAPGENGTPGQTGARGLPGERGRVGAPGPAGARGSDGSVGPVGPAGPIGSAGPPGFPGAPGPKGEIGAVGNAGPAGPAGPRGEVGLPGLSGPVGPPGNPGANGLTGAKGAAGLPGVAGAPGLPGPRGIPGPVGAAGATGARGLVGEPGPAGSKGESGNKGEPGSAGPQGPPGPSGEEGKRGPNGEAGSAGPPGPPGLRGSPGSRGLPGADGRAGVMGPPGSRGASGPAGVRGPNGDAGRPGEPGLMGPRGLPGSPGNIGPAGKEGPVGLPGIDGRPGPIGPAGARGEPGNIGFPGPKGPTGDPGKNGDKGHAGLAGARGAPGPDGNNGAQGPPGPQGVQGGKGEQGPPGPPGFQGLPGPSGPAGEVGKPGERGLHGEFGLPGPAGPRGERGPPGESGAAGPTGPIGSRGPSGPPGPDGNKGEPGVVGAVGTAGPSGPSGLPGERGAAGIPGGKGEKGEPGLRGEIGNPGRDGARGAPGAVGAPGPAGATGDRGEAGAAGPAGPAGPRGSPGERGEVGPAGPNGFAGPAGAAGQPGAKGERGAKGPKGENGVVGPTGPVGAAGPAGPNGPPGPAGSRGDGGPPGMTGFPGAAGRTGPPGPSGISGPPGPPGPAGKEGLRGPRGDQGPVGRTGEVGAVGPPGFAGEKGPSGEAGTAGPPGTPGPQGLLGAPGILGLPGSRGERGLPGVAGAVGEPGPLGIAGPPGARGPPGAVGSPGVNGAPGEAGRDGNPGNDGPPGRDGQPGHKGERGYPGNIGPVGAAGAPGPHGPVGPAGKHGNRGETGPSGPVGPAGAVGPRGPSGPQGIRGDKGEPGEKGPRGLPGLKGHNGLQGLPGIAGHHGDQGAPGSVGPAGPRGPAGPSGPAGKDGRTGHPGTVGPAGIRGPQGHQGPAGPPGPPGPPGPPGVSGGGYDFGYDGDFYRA

“bFGF: basic fibroblast growth factor, SEQ ID NO: 1”: the infarct size in data set [1] (setting [11]) is recorded as 31%. In addition, in data set [1] (25 μg i.v.), the infarct size result was “not much different from when 5 μg of bFGF was administered”. Also, in data set [2], the EDP is listed as 8.5 ± 0.9 mmHg, the EDV was found to be 365.3 ± 27.5 µL, the ESP is on record as 85.3 ± 1.7 mmHg and the ESV stood at 254.5 ± 13.8 µL. In data set [2], this compound came in with an Ea of 0.86 ± 0.12 mmHg/μL, an HR of 316.5 ± 12.9 bpm, an SW of 1.51 ± 0.14 mmHg · mL · kg and a Tau of 11.7 ± 0.5 ms.
Consider “tannylated SP: substance P (SEQ ID NO: 2, RPKPQQFFGLM) mixed with tannic acid solution at [SP]/[TA] ratios 0.5-20”, for which, in [3], the size of complex result is given as “up to 1 μm”.
As to `O=C(OC[C@H]1O[C@@H](OC(=O)c2cc(O)c(O)c(OC(=O)c3cc(O)c(O)c(O)c3)c2)[C@H](OC(=O)c2cc(O)c(O)c(OC(=O)c3cc(O)c(O)c(O)c3)c2)[C@@H](OC(=O)c2cc(O)c(O)c(OC(=O)c3cc(O)c(O)c(O)c3)c2)[C@@H]1OC(=O)c1cc(O)c(O)c(OC(=O)c2cc(O)c(O)c(O)c2)c1)c1cc(O)c(O)c(OC(=O)c2cc(O)c(O)c(O)c2)c1` [tannic acid], the “turbidity (A600) of elastin solution after addition of TA” value on elastin [4] is 1.219±0.022. Moreover, at type I collagen [5], the “turbidity (A600) of collagen solution after addition of TA” value is reported as 0.173±0.022. The “turbidity change of HS solution after addition of TA” value in [6] is listed as “no turbidity change was observed”. For the same compound, the “turbidity change of HA solution after addition of TA” value in [7] is “no turbidity change was observed”. Moreover, the “SPR ΔRU value” at type I collagen [8] came to 793. Further, on elastin [9], the “SPR ΔRU value” is given as 1319. On elastin [10] (ITC), the “[TA]/[elastin] ratio of first step (TA conjugated with elastin inter-molecularly)” value is “up to 20” and the “[TA]/[elastin] ratio of second step (inter-TA/elastin complexes conjugated each other)” value is recorded as no less than 30. Also, the “ITC thermodynamics of binding between TA and elastin” value on elastin [10] (elastin 210 μg/mL, TA […]) is listed as “exothermic interaction”.
Take “tannylated bFGF: bFGF (SEQ ID NO: 1) mixed with TA solution, stoichiometric molar ratio [TA]/[bFGF] of 143”: the infarct size entry in data set [1] (setting [11]) is “approximately 16%”. In data set [2], this compound yielded an EDP of 9.8 ± 1.6 mmHg, an EDV of 295.9 ± 23.3 µL, an ESP of 103.8 ± 4.6 mmHg and an ESV of 133.9 ± 19.5 µL. For the same compound, in data set [2], the Ea is recorded as 0.77 ± 0.14 mmHg/μL, the HR was 322.7 ± 18.0 bpm, the SW worked out at 3.00 ± 0.53 mmHg · mL · kg and the Tau stood at 11.7 ± 1.1 ms. Moreover, the “hemodynamic functional values (left ventricular pressure, stroke volume, cardiac output, ventricular contractility index)” value in data set [2] (i.v., 28 days after injection, versus sham group) is given as “recovered all the hemodynamic functional values”.
